For this test, the system named is traumatic osteonecrosis (femoral head). As to the kind of experiment: Model of traumatic osteonecrosis of the femoral head in rats, six weeks after operation. The format is in vivo, Wistar rats. The conditions noted are these: for BMC / BMD: femoral head, DEXA; for XR Head Area (% Contra): operated femoral head, six weeks. An excerpt: A model of traumatic osteonecrosis was utilised in 24 female 14-week-old Wistar rats. The animals were followed for six weeks after an operation designed to disrupt the blood supply to the femoral head. The six week time point was chosen as a time point when femoral head collapse is known to have occurred in this model ^1. Animal ethics approval was received.
Rats were randomised in lots of 4 into three groups according to the schedule below. Controls receive only saline (S) injections via a subcutaneous route. Post-treated animals received saline only pre-operatively, but zoledronic acid (ZA) (Novartis) 0.1 mg/kg, from commercial stock, was administered by subcutaneous injection post-operatively at 1 and 4 weeks. Pre and Post-treated animals received zoledronic acid 0.1 mg/kg at all three time points.
The same operation was performed on each rat at time zero. All animals were weighed accurately before anaesthesia. Animals were kept warm during surgery and recovery. Anaesthesia was induced with a mixture of Ketamine 75 mg/kg and Xylazine 10 mg/kg. Drugs were mixed in the same syringe just prior to administration and given 0.2 mL per 100 g BW IM. Induction occurred within 5-10 minutes.
After sterile preparation and shaving of the right lower extremity, an open approach was made to the hip joint. The capsule was opened, and the right femoral head was dislocated from the acetabulum. The ligamentum teres divided, disrupting any blood supply from that source. The entire femoral neck was denuded of soft tissue by polishing with a vicryl suture. This disrupted the lateral epiphyseal artery and any other vessels supplying the head via the femoral neck.
Dual fluorescent labels were applied at weeks 4 and 5: at week 4 demeclocycline 30 mg/kg was administered intraperitoneally, and at week 5 calcein 20 mg/kg was administered intraperitoneally. One hour prior to culling 70 MBq Tc99 MDP was administered subcutaneously to allow bone scintigraphy to be performed on harvested specimens.
After culling, right and left proximal femora were harvested and fixed in 4% paraformaldehyde. Radiographs were taken in pairs on high quality film with a Faxitron Shielded Cabinet X-Ray System (Hewlett Packard, McMinnville, Oreg. X-ray images were digitised and analysed using Bioquant image analysis system (R&M Biometrics Inc., Nashville, Tenn.) connected to a digitizing tablet (GTCO CalComp, Inc., Columbia, Md.). Bone area, height and width of the femoral head were recorded and compared to the contralateral side. Scintigraphy scans were taken using 4 mm aperture pinholes. BMD and BMC were measured with a pDEXA Sabre scanner (Norland, Ft Atkinson Wis.).
Specimens were resin embedded and sectioned undecalcified. Coronal sections (6 microns) were cut through the femoral head. Sections were stained with von Kossa to assess trabecular bone volume and structure. Fluorescent microscopy was used on unstained sections to image the fluorescent labels and assess bone formation.

The mark [1] stands for this setting: Post-Treated: 0.1 mg/kg s.c. at 1 and 4 weeks post-operatively.
The mark [2] stands for this setting: Pre- and Post: 0.1 mg/kg s.c. at all three time points.

For the compound `O=P(O)(O)C(O)(Cn1ccnc1)P(=O)(O)O` [zoledronic acid, 1-hydroxy-2-[(1H-imidazol-1-yl)ethylidine] bisphosphonic acid], under setting [1], the BMC worked out at 0.012 g, the BMD was determined as 0.11 g/cm^2 and the “XR Head Area (% Contra)” value is 79 % Contra. In addition, under setting [2], the BMC is given as 0.015 g, the BMD is on record as 0.12 g/cm^2 and the “XR Head Area (% Contra)” value was determined as 85 % Contra.
